What was measured:
PI3Kα = PI3Kα (Homo sapiens (Human), UniProt P42336); conditions: read-out: PI3Kα AlphaScreen ® Ki
[1] = test system: phosphorylation of Akt at Serine 473 in U87 MG cells; experiment: cells; conditions: Homo sapiens, U-87 MG, 2 h, read-out: U87Cell IC50, pAkt (Ser 473), U87 MG cells, two hours with compound

PI3Kα, sequence (P42336 whole entry): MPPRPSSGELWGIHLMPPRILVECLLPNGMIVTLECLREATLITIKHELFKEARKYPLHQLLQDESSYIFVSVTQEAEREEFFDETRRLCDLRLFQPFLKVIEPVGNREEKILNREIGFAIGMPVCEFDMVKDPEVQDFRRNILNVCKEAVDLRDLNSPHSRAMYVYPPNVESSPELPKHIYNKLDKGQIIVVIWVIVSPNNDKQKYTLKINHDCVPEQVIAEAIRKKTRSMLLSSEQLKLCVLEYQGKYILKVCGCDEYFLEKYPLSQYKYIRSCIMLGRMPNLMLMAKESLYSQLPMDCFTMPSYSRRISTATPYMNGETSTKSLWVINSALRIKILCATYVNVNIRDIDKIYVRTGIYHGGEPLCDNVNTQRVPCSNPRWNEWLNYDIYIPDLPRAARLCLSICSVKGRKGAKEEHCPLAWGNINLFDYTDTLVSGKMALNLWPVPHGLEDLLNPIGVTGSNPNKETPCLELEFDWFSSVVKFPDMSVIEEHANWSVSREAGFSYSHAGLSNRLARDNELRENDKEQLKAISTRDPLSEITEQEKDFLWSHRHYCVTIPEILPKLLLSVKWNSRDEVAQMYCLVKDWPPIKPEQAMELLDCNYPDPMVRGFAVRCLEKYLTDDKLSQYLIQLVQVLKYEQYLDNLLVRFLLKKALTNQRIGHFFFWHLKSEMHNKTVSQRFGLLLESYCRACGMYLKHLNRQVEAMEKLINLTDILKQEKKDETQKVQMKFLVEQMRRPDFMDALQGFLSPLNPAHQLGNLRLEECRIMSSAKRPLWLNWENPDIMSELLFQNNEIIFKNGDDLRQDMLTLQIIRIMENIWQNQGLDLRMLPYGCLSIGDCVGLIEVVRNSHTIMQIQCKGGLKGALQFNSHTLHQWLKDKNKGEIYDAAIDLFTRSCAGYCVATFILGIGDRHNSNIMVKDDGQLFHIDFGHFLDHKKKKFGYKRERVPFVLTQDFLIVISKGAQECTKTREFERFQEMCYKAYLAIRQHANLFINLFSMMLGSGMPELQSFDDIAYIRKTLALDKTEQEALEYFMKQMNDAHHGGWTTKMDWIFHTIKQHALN
PI3Kα, sequence (P27986 whole entry partner): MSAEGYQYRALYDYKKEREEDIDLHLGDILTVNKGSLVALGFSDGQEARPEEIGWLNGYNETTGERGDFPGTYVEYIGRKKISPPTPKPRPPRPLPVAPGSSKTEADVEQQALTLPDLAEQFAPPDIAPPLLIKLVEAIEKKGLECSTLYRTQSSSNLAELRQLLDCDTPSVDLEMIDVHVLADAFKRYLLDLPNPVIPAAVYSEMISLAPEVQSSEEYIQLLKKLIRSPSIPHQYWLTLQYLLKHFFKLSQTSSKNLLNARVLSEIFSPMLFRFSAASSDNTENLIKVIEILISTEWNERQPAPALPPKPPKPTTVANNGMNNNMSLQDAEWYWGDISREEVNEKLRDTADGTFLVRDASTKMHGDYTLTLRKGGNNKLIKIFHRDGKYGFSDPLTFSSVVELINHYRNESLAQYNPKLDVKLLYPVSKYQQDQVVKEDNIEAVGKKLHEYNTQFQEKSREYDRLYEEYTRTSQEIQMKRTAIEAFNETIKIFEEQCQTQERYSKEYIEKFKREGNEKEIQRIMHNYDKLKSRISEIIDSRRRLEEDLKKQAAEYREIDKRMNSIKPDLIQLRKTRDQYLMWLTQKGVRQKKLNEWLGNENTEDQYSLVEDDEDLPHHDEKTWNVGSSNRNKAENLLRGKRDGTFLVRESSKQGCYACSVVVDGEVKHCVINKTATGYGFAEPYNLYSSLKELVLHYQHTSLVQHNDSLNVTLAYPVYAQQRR

Row | SMILES | Ki (PI3Kα) [nM] | IC50 [1] [nM]
1 | COc1ccc(Nc2ncc(C(=O)N3CCOCC3)cc2-c2nc(C)nc(N)n2)cn1 [Example 151, 4-(2-((6-Methoxy-3-Pyridinyl)Amino)-5-(4-Morpholinylcarbonyl)-3-Pyridinyl)-6-Methyl-1,3,5-Triazin-2-Amine] | 64 | 143
2 | COc1ccc(Nc2ncc(CNCCO)cc2-c2nc(C)nc(N)n2)cn1 [Example 225, 2-((5-(4-Amino-6-Methyl-1,3,5-Triazin-2-yl)-6-(6-Methoxypyridin-3-Ylamino)Pyridin-3-yl)Methylamino)Ethanol] | 135 | 275
3 | CC(=O)Nc1ccc(Nc2ncc(CN3CCN(S(C)(=O)=O)CC3)cc2-c2nc(C)nc(N)n2)cc1F [Example 267, N-(4-(3-(4-Amino-6-Methyl-1,3,5-Triazin-2-yl)-5-((4-(Methylsulfonyl)Piperazin-1-yl)Methyl)Pyridin-2-Ylamino)-2-Fluorophenyl)Acetamide] | 369 | 486
4 | COc1ncc(Nc2ncc(C(=O)N3CCC(O)CC3)cc2-c2nc(C)nc(N)n2)cc1F [Example 176, (5-(4-amino-6-methyl-1,3,5-triazin-2-yl)-6-(5-fluoro-6-methoxypyridin-3-ylamino)pyridin-3-yl)(4-hydroxypiperidin-1-yl)methanone] | 44 | 134
5 | Cc1nc(N)nc(-c2cccnc2Nc2cc[nH]c(=O)c2)n1 [Example 263, 4-(3-(4-Amino-6-Methyl-1,3,5-Triazin-2-yl)Pyridin-2-Ylamino)Pyridin-2(1H)-One] | 643 | > 10000
6 | Cc1nc(N)nc(-c2cc([C@@H](C)N3CCN(S(C)(=O)=O)C[C@@H]3C)cnc2Nc2ccc3scnc3c2)n1 [Example 293, N-(3-(4-Amino-6-Methyl-1,3,5-Triazin-2-yl)-5-((R)-1-((S)-2-Methyl-4-(Methylsulfonyl)Piperazin-1-yl)Ethyl)Pyridin-2-yl)Benzo[D]Thiazol-5-Amine] | 4 | 24
7 | COc1cnc(Nc2cnc(Cl)c(N)c2)c(-c2nc(C)nc(N)n2)c1 [Example 368, N5-(3-(4-Amino-6-Methyl-1,3,5-Triazin-2-yl)-5-Methoxypyridin-2-yl)-2-Chloropyridine-3,5-Diamine] | 270 | 117
8 | COc1ccc(Nc2ncc(CNc3ccccn3)cc2-c2nc(C)nc3[nH]cnc23)cn1 [Example 82, N-(6-methoxypyridin-3-yl)-3-(2-methyl-9H-purin-6-yl)-5-((pyridin-2-ylamino)methyl)pyridin-2-amine] | 25 | 226
9 | COc1ccc(Nc2ncc(CNC(C)(C)C)cc2-c2nc(C)nc3[nH]cnc23)cn1 [Example 134, 5-((tert-butylamino)methyl)-N-(6-methoxypyridin-3-yl)-3-(2-methyl-9H-purin-6-yl)pyridin-2-amine] | 217 | 1250
10 | COc1ccc(Nc2ncc(CN3CC4(C3)NC(=O)NC4=O)cc2-c2nc(C)nc(N)n2)cn1 [Example 230, 2-((5-(4-Amino-6-Methyl-1,3,5-Triazin-2-yl)-6-(6-Methoxypyridin-3-Ylamino)Pyridin-3-yl)Methyl)-2,5,7-Triazaspiro[3.4]Octane-6,8-Dione] | 68 | 2470
11 | COc1ccc(Nc2ncc(C(C)(C)N)cc2-c2nc(C)nc(N)n2)cn1 [Example 277, 4-(5-(2-Aminopropan-2-yl)-2-(6-Methoxypyridin-3-Ylamino)Pyridin-3-yl)-6-Methyl-1,3,5-Triazin-2-Amine] | 56 | 170
12 | COc1ccc(Nc2ncc(C(O)c3ccc(S(=O)(=O)N(C)C)cc3)cc2-c2nc(C)nc(N)n2)cn1 (stereo not shown) [Example 236, 4-((5-(4-Amino-6-Methyl-1,3,5-Triazin-2-yl)-6-(6-Methoxypyridin-3-Ylamino)Pyridin-3-yl)(Hydroxy)Methyl)-N,N-Dimethylbenzenesulfonamide] | 4 | > 10000
13 | COCCOc1cnc(Nc2cnc(C)c(NS(C)(=O)=O)c2)c(-c2nc(C)nc(N)n2)c1 [Example 376, N-(5-(3-(4-Amino-6-Methyl-1,3,5-Triazin-2-yl)-5-(2-Methoxyethoxy)Pyridin-2-Ylamino)-2-Methylpyridin-3-yl)Methanesulfonamide] | 71 | 267

More lines, now with the values ahead:

Row | Ki (PI3Kα) [nM] | IC50 [1] [nM] | SMILES
14 | 12 | 140 | Cc1nc(-c2cc(Cc3ccc(S(C)(=O)=O)cc3)cnc2Nc2ccc(N)nc2)c2nc[nH]c2n1 [Example 106, N5-(3-(2-methyl-9H-purin-6-yl)-5-(4-(methylsulfonyl)benzyl)pyridin-2-yl)pyridine-2,5-diamine]
15 | 6 | 1 | Cc1nc(N)nc(-c2cc([C@@H](C)N3CCOCC3)cnc2Nc2cnc(Cl)c(NS(=O)(=O)N(C)C)c2)n1 [Example 373, (R)—N-(5-(3-(4-Amino-6-Methyl-1,3,5-Triazin-2-yl)-5-(1-Morpholinoethyl)Pyridin-2-Ylamino)-2-Chloropyridin-3-yl)-N,N-Dimethylaminosulfamide]
16 | 38 | > 10000 | COc1ccc(Nc2nc3ccccc3cc2-c2nc(C)nc3[nH]cnc23)cn1 [Example 113, N-(6-Methoxypyridin-3-yl)-3-(2-Methyl-9H-Purin-6-yl)Quinolin-2-Amine]
17 | 43 | 209 | COc1ccc(Nc2ncc(CN3CCN(C(=O)N(C)C)CC3)cc2-c2nc(C)nc3[nH]cnc23)cn1 [Example 87, 4-((6-(6-Methoxypyridin-3-Ylamino)-5-(2-Methyl-9H-Purin-6-yl)Pyridin-3-yl)Methyl)-N,N-Dimethylpiperazine-1-Carboxamide]
18 | 8 | 9 | Cc1nc(N)nc(-c2cc(C(C)N3CCOCC3)cnc2Nc2cnc(Cl)c(NS(C)(=O)=O)c2)n1 (stereo not shown) [Example 369, N-(5-(3-(4-Amino-6-Methyl-1,3,5-Triazin-2-yl)-5-(1-Morpholinoethyl)Pyridin-2-Ylamino)-2-Chloropyridin-3-yl)Methanesulfonamide]
19 | 37 | 7 | COc1ncc(Nc2ncc([C@@H](C)N3CCOCC3)cc2-c2nc(C)nc(N)n2)cc1F (single isomer, unassigned) [Example 291]
20 | 68 | 227 | COc1ncc(Nc2nc(COCC(F)(F)F)ccc2-c2nc(C)nc(N)n2)cc1F [Example 199, 4-(2-(5-Fluoro-6-Methoxypyridin-3-Ylamino)-6-((2,2,2-Trifluoroethoxy)Methyl)Pyridin-3-yl)-6-Methyl-1,3,5-Triazin-2-Amine]
21 | 103 | 739 | CC(=O)Nc1ccc(Nc2ncc(CN3CCN(S(C)(=O)=O)CC3)cc2-c2nc(C)nc(N)n2)cc1 [Example 268, N-(4-(3-(4-Amino-6-Methyl-1,3,5-Triazin-2-yl)-5-((4-(Methylsulfonyl)Piperazin-1-yl)Methyl)Pyridin-2-Ylamino)Phenyl)Acetamide]
22 | 47 | 384 | COc1ccc(Nc2ncc(N3CC[C@H](O)C3)cc2-c2nc(C)nc3[nH]cnc23)cn1 [Example 205, (3S)-1-(6-((6-Methoxy-3-Pyridinyl)Amino)-5-(2-Methyl-9H-Purin-6-yl)-3-Pyridinyl)-3-Pyrrolidinol]
23 | 29 | 146 | Cc1nc(N)cc(-c2cccnc2Nc2cnc(Cl)c(NS(C)(=O)=O)c2)n1 [Example 304, N-(5-((3-(6-amino-2-methyl-4-pyrimidinyl)-2-pyridinyl)amino)-2-chloro-3-pyridinyl)methanesulfonamide]

— US8772480B2, “Inhibitors of PI3 kinase and/or mTOR” (priority 2009, dated 2014)
